Measured values as given in patent US6897203B2, “Polysaccharidic esters of retinoic acid” (priority 2001, dated 2005).

Legend:
[1] = system: P19 cells, embryonal pluripotent murine teratocarcinoma cell line; details: after 4 days of treatment, RT-PCR and RNase protection; for prodynorphin gene expression: P19 indifferentiated cells in suspension; for gene induction of the GATA-4 and Nkx-2.5 genes: P19 indifferentiated cells, follows the prodynorphin increase
Experimental: The experiments were carried out on P19 cells, embryonal pluripotent murine teratocarcinoma cell line (European Collection of Cell Cultures, UK). These cultured cells indifferentiately proliferate but can be transformed into several cell phenotypes in the presence of differentiating agents, thus selectively summarising the first molecular events that take place during the embryonal growth. […] P19 cells are cultivated in a suspension in alpha-mem medium in 60 mm Petri dishes, either in the absence or in the presence of the hyaluronan esters of the invention. After 4 days of treatment, the total RNA was extracted according to the procedure described by Chomczynsky and Sacchi (Chomczynsky, P., N. Sacchi, Anal. Biochem. 162: 156-159, 1987) and the expression of specific transcripts was evaluated by RT-PCR and RNase protection.

[2] = system: P19 cells, embryonal pluripotent murine teratocarcinoma cell line; details: cultured P19 cells; McBurney et al., Nature 1982; cited from earlier work

Compound	prodynorphin gene expression [1]	gene induction of the GATA-4 and Nkx-2.5 genes [1]	differentiation phenotype of P19 cells in the presence of a differentiating agent [2]
Hyaluronan Ester with Trans-Retinoic Acid [Example 3]	marked increase	gene induction	–
Ester of Hyaluronan with Trans-Retinoic Acid [Example 4]	marked increase	gene induction	–
C[S+](C)[O-] [DMSO, dimethylsulphoxide]	–	–	turn into myocardial cells supplied with spontaneous contractile activity
CC(C=CC1=C(C)CCCC1(C)C)=CC=CC(C)=CC(=O)O [retinoic acid, 3,7-dimethyl-9-(2,6,6-trimethyl-1-cyclohexene-1-yl)-2,4,6,8-nonatetraenoic acid]	–	–	turn into neuronal cells
